Results taken from PubChem BioAssay (NCI).
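How tested: cells in 96-well plates exposed to compound for 48 hours at five concentrations. TGI: concentration producing complete growth inhibition.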

Assays:
Experiment in all cases: growth of human tumour cells (NCI), 48 h
[1] = tested on: NCI/ADR-RES ovarian
[2] = tested on: T-47D breast
[3] = tested on: A549 NSCLC
[4] = tested on: HOP-92 NSCLC
[5] = tested on: UACC-62 melanoma
[6] = tested on: UO-31 renal
[7] = tested on: NCI-H460 lung
[8] = tested on: TK-10 renal
[9] = tested on: SK-OV-3 ovarian
[10] = tested on: EKVX NSCLC
[11] = tested on: NCI-H226 lung
[12] = tested on: SK-MEL-5 melanoma
[13] = tested on: SK-MEL-28 melanoma
[14] = tested on: MOLT-4 leukemia
[15] = tested on: A498 renal
[16] = tested on: CAKI-1 renal
[17] = tested on: SF-539 CNS
[18] = tested on: OVCAR-4 ovarian
[19] = tested on: MALME-3M melanoma
[20] = tested on: HL-60(TB) leukemia
[21] = tested on: MCF7 breast
[22] = tested on: HCT-15 colon
[23] = tested on: OVCAR-8 ovarian
[24] = tested on: UACC-257 melanoma
[25] = tested on: K-562 leukemia
[26] = tested on: SW-620 colon
[27] = tested on: SK-MEL-2 melanoma
[28] = tested on: OVCAR-5 ovarian
[29] = tested on: NCI-H522 lung
[30] = tested on: HCC-2998 colon
[31] = tested on: SNB-19 CNS
[32] = tested on: MDA-MB-435
[33] = tested on: BT-549 breast
[34] = tested on: U251 CNS
[35] = tested on: SNB-75 CNS
[36] = tested on: COLO 205 colon
[37] = tested on: KM12 colon
[38] = tested on: SF-268 CNS
[39] = tested on: HT29 colon
[40] = tested on: HS 578T breast
[41] = tested on: SR leukemia
[42] = tested on: DU-145 prostate
[43] = tested on: PC-3 prostate
[44] = tested on: LOX IMVI melanoma
[45] = tested on: SN12C renal
[46] = tested on: 786-0 renal
[47] = tested on: HCT-116 colon
[48] = tested on: M14 melanoma
[49] = tested on: MDA-MB-231 breast
[50] = tested on: MDA-N
[51] = tested on: OVCAR-3 ovarian
[52] = tested on: IGROV1 ovarian
[53] = tested on: RPMI-8226 leukemia
[54] = tested on: RXF 393 renal
[55] = tested on: NCI-H23 lung
[56] = tested on: ACHN renal
[57] = tested on: HOP-62 NSCLC
[58] = tested on: CCRF-CEM leukemia
[59] = tested on: SF-295 CNS
[60] = tested on: DLD-1 colon
[61] = tested on: DMS 273 small cell lung
[62] = tested on: KM20L2 colon
[63] = tested on: LXFL 529 NSCLC
[64] = tested on: M19-MEL melanoma
[65] = tested on: SNB-78 CNS

Cc1c(C)c(C)c(-n2c(=O)n(C)c(=O)n2-n2c(=O)n(C)c(=O)n2-c2c(C)c(C)c(C)c(C)c2C)c(C)c1C
TGI [1]: > 100 µM | TGI [2]: > 100 µM | TGI [3]: > 100 µM | TGI [4]: > 100 µM | TGI [5]: > 100 µM | TGI [6]: > 100 µM | TGI [7]: > 100 µM | TGI [8]: > 100 µM | TGI [9]: > 100 µM | TGI [10]: > 100 µM | TGI [11]: > 100 µM | TGI [12]: > 100 µM | TGI [13]: > 100 µM | TGI [14]: > 100 µM | TGI [15]: > 100 µM | TGI [16]: > 100 µM | TGI [17]: > 100 µM | TGI [18]: > 100 µM | TGI [19]: > 100 µM | TGI [20]: 68.7 µM | TGI [21]: > 100 µM | TGI [22]: > 100 µM | TGI [23]: > 100 µM | TGI [24]: > 100 µM | TGI [25]: > 100 µM | TGI [26]: > 100 µM | TGI [27]: > 100 µM | TGI [28]: > 100 µM | TGI [29]: > 100 µM | TGI [30]: > 100 µM | TGI [31]: > 100 µM | TGI [32]: > 100 µM | TGI [33]: > 100 µM | TGI [34]: > 100 µM | TGI [35]: > 100 µM | TGI [36]: > 100 µM | TGI [37]: > 100 µM | TGI [38]: > 100 µM | TGI [39]: > 100 µM | TGI [40]: > 100 µM | TGI [41]: > 100 µM | TGI [42]: > 100 µM | TGI [43]: > 100 µM | TGI [44]: > 100 µM | TGI [45]: > 100 µM | TGI [46]: > 100 µM | TGI [47]: > 100 µM | TGI [48]: > 100 µM | TGI [49]: > 100 µM | TGI [50]: > 100 µM | TGI [51]: > 100 µM | TGI [52]: > 100 µM | TGI [53]: > 100 µM | TGI [54]: > 100 µM

COc1ccc2nc3cc(Cl)ccc3c(NCCNC(=O)Cn3c(=O)n(C)c(=O)c4c3nc3c(c(=O)n(C)c(=O)n3C)[n+]4[O-])c2c1
TGI [55]: 56 µM | TGI [1]: > 95.8 µM | TGI [2]: > 100 µM | TGI [3]: > 100 µM | TGI [4]: > 74.7 µM | TGI [5]: > 52.9 µM | TGI [6]: > 100 µM | TGI [7]: > 100 µM | TGI [8]: > 56.1 µM | TGI [9]: > 100 µM | TGI [10]: > 100 µM | TGI [56]: > 100 µM | TGI [11]: > 80.1 µM | TGI [12]: > 100 µM | TGI [13]: > 31.6 µM | TGI [14]: > 90.8 µM | TGI [15]: 98.8 µM | TGI [16]: > 100 µM | TGI [17]: > 65 µM | TGI [18]: > 100 µM | TGI [19]: > 100 µM | TGI [20]: > 100 µM | TGI [21]: > 100 µM | TGI [22]: > 100 µM | TGI [57]: 50.8 µM | TGI [23]: 57 µM | TGI [24]: > 55.9 µM | TGI [25]: > 100 µM | TGI [26]: > 71.7 µM | TGI [27]: > 100 µM | TGI [28]: > 100 µM | TGI [29]: > 74.6 µM | TGI [30]: > 100 µM | TGI [31]: > 77.9 µM | TGI [32]: > 69.5 µM | TGI [58]: > 100 µM | TGI [59]: > 100 µM | TGI [33]: 49.1 µM | TGI [34]: 58.9 µM | TGI [35]: 92.2 µM | TGI [36]: > 100 µM | TGI [37]: > 100 µM | TGI [38]: 60.8 µM | TGI [39]: > 65.1 µM | TGI [40]: 71.2 µM | TGI [41]: 63.8 µM | TGI [42]: > 100 µM | TGI [43]: > 100 µM | TGI [44]: > 100 µM | TGI [45]: > 100 µM | TGI [46]: > 100 µM | TGI [47]: > 100 µM | TGI [48]: > 100 µM | TGI [49]: > 100 µM | TGI [50]: > 100 µM | TGI [51]: > 100 µM | TGI [52]: 61.6 µM | TGI [53]: > 100 µM | TGI [54]: > 100 µM

CN(Cc1ccccc1)C(=NC#N)N(Cc1ccccc1)Cc1ccccc1
TGI [60]: > 100 µM | TGI [55]: 64 µM | TGI [1]: 56.1 µM | TGI [2]: > 100 µM | TGI [3]: > 100 µM | TGI [61]: 41.8 µM | TGI [4]: 55.1 µM | TGI [5]: 55.6 µM | TGI [62]: 56.2 µM | TGI [6]: > 84.2 µM | TGI [7]: > 90.1 µM | TGI [8]: > 100 µM | TGI [9]: > 90.3 µM | TGI [10]: > 100 µM | TGI [56]: 78.3 µM | TGI [11]: 67.5 µM | TGI [12]: 33.3 µM | TGI [13]: 83.1 µM | TGI [14]: > 100 µM | TGI [15]: > 100 µM | TGI [16]: 58.6 µM | TGI [17]: 39.7 µM | TGI [63]: 70.2 µM | TGI [18]: > 93 µM | TGI [19]: 67.1 µM | TGI [20]: > 100 µM | TGI [21]: 93.2 µM | TGI [22]: 71 µM | TGI [57]: 84.8 µM | TGI [23]: > 100 µM | TGI [24]: 54.4 µM | TGI [25]: > 100 µM | TGI [26]: > 100 µM | TGI [27]: 40.7 µM | TGI [28]: 94.7 µM | TGI [29]: 55.5 µM | TGI [30]: > 87.1 µM | TGI [31]: > 100 µM | TGI [32]: 33.7 µM | TGI [58]: > 100 µM | TGI [59]: 47.4 µM | TGI [33]: 49.6 µM | TGI [34]: 96.9 µM | TGI [35]: 82.2 µM | TGI [36]: 36.2 µM | TGI [37]: 44.4 µM | TGI [38]: > 100 µM | TGI [39]: 36.3 µM | TGI [40]: > 100 µM | TGI [41]: > 100 µM | TGI [42]: > 100 µM | TGI [43]: 39.5 µM | TGI [44]: 35 µM | TGI [45]: > 92.9 µM | TGI [46]: 97.6 µM | TGI [47]: > 55.3 µM | TGI [48]: 47.7 µM | TGI [49]: 58.7 µM | TGI [64]: 54.4 µM | TGI [50]: 39.6 µM | TGI [51]: 44.7 µM | TGI [52]: > 80.6 µM | TGI [53]: 55.4 µM | TGI [54]: 95.9 µM | TGI [65]: 77.1 µM
